Results as given in patent US3956291A, “7-Thioacetamido cephalosporanic acid derivatives” (American Home Products Corporation, priority 1974, dated 1976).
In brackets after ≈: the same amount, converted by molar mass.

How the values were obtained:
Assay in all cases: agar serial dilution test, minimum inhibitory concentration
Type in all cases: cell-based
[1] = tested on: Staphylococcus aureus; details: Staphylococcus aureus
Description: (§1) The compounds of this invention are useful for the treatment of bacterial infections amenable to treatment by cephalosporins. […] In accordance with the results obtained with the antibacterial compounds of this invention, their usefulness is established in the fields of comparative pharmacology and microbiology for the purpose of inhibiting the growth of undesirable bacterial colonies. […]

[2] = tested on: bacillus subtilis; details: Bacillus subtilis; BA SU strain 6633
Description: as §1

[3] = tested on: bordetella brochiseptica; details: BO BR strain 4617
Description: as §1

[4] = tested on: escherichia coli
Description: as §1

[5] = tested on: neisseria catarrhalis; details: NE CA strain 8193, read-out: Minimum Inhibitory Concentration
Description: as §1

[6] = tested on: proteus vulgaris; details: PR VU strain 6896, read-out: Minimum Inhibitory Concentration
Description: as §1

[7] = tested on: enterobacter aerogenes; details: Klebsiella aerogenes; EN AE strain 13048
Description: (§2) The compounds of this invention are useful for the treatment of bacterial infections amenable to treatment by cephalosporins. […] In accordance with the results obtained with the antibacterial compounds of this invention, their usefulness is established in the fields of comparative pharmacology and microbiology for the purpose of inhibiting the growth of undesirable bacterial colonies.
(§3) The nmr spectra described in the following examples pertains to the spectra obtained upon exchanging acidic hydrogens with deuterium and are described in ppm (δ). The small amount of water and/or solvent carried into the products is readily removed by gently heating the material under vacuum. […]

[8] = tested on: escherichia intermedia; details: Citrobacter intermedius; ES IN strain 65-1
Description: as §2, §3

[9] = tested on: herellea species; details: HE SP strain 9955
Description: as §2, §3

[10] = tested on: klebsiella pneumoniae; details: KL PN strain 10031, read-out: Minimum Inhibitory Concentration
Description: as §1

[11] = tested on: salmonella paratyphi; details: Salmonella enterica, read-out: Minimum Inhibitory Concentration
Description: as §1

[12] = tested on: pseudomones aeruginosa; details: PS AE strain 10145
Description: as §2, §3

| SMILES | MIC ([1]; ST AU strain 53-180) | MIC ([1]; ST AU strain 6538P) | MIC ([1]; ST AU strain CHP) | MIC ([1]; ST AU strain Smith) | MIC [2] | MIC [3] | MIC ([4]; ES CO strain 9637) | MIC [5] | MIC [6] | MIC [7] | MIC [8] | MIC [9] | MIC ([4]; ES CO strain 920) | MIC [10] | MIC [11] | MIC [12] |
| --- | --- | --- | --- | --- | --- | --- | --- | --- | --- | --- | --- | --- | --- | --- | --- | --- |
| CC(=O)OCC1=C(C(=O)O)N2C(=O)[C@@H](NC(=O)CSC(=NC#N)SCC#N)[C@H]2SC1 [Example 7, 7-[2-[(cyanoimino) (cyanomethylthio)methylthio]acetamido]cephalosporanic acid] | 0.976 µg/mL (≈ 2.08 µM) | 0.488 µg/mL (≈ 1.04 µM) | 195 µg/mL (≈ 415 µM) | 0.488 µg/mL (≈ 1.04 µM) | 0.061 µg/mL (≈ 0.13 µM) | 15.6 µg/mL (≈ 33.2 µM) | 31.3 µg/mL (≈ 66.7 µM) | 31.3 µg/mL (≈ 66.7 µM) | 31.3 µg/mL (≈ 66.7 µM) | 7.81 µg/mL (≈ 16.6 µM) | 62.5 µg/mL (≈ 133 µM) | 31.3 µg/mL (≈ 66.7 µM) |  |  |  |  |
| CC(=O)OCC1=C(C(=O)O)N2C(=O)[C@@H](NC(=O)CSC(=C[N+](=O)[O-])SCC#N)[C@H]2SC1 [Example 6, 7-[2-(1-Cyanomethylthio-2-nitroethenylthio)acetamido]cephalosporanic acid] | 3.9 µg/mL (≈ 7.98 µM) | 0.976 µg/mL (≈ 2 µM) | 3.9 µg/mL (≈ 7.98 µM) | 0.976 µg/mL (≈ 2 µM) | 0.122 µg/mL (≈ 0.25 µM) | 125 µg/mL (≈ 256 µM) | 62.5 µg/mL (≈ 128 µM) | 62.5 µg/mL (≈ 128 µM) | 31.3 µg/mL (≈ 64.1 µM) |  | 250 µg/mL (≈ 512 µM) | 125 µg/mL (≈ 256 µM) | 125 µg/mL (≈ 256 µM) | 62.5 µg/mL (≈ 128 µM) | 7.81 µg/mL (≈ 16 µM) | 250 µg/mL (≈ 512 µM) |
